Experimental data as given in patent US20250332178A1, “METHODS OF TREATING MYCOBACTERIAL INFECTIONS USING TETRACYCLINE COMPOUNDS” (priority 2018, published 2025).
≈ marks a conversion by molar mass, not a printed value. Read-outs that look alike come from different tables or passages of the source.

Test system: H37Rv strain of Mycobacterium tuberculosis
Test: MIC against H37Rv strain
Type: cell-based
Description: The purpose of this study was to test activity of selected tetracycline compounds against the H37Rv strain of Mycobacterium tuberculosis. Minimum inhibitory concentrations (MIC) of different tetracycline compounds against H37Rv strain were determined and are shown in Table 8.

[1] = Mycobacterium tuberculosis, H37RV, read-out: MIC
[2] = Mycobacterium tuberculosis, H37RV

SMILES	MIC [1] [µg/mL]	also measured
CCc1cc(CNC(=O)c2cccnc2)c(O)c2c1C[C@H]1C[C@H]3[C@H](N(C)C)C(O)=C(C(N)=O)C(=O)[C@@]3(O)C(O)=C1C2=O [Compound 1]	> 32	–
CN(C)[C@@H]1C(O)=C(C(N)=O)C(=O)[C@@]2(O)C(O)=C3C(=O)c4c(O)c(CNC(=O)c5cccnc5)cc(CCC5CCCCC5)c4C[C@H]3C[C@@H]12 [Compound 2]	> 32	–
CC(=O)NCc1cc(N(C)C)c2c(c1O)C(=O)C1=C(O)[C@]3(O)C(=O)C(C(N)=O)=C(O)C(N(C)C)[C@@H]3C[C@@H]1C2 (stereo partly shown) [Compound 3]	> 32	–
CCc1cc(CC)c2c(c1O)C(=O)C1=C(O)[C@]3(O)C(=O)C(C(N)=O)=C(O)[C@@H](N(C)C)[C@@H]3C[C@@H]1C2 [Compound 4]	> 32	–
CN(C)c1cc(CNCCc2ccccc2)c(O)c2c1C[C@H]1C[C@H]3C(N(C)C)C(O)=C(C(N)=O)C(=O)[C@@]3(O)C(O)=C1C2=O (stereo partly shown) [Compound 5]	> 32	–
CCc1cc(CNC(C)=O)c(O)c2c1C[C@H]1C[C@H]3C(N(C)C)C(O)=C(C(N)=O)C(=O)[C@@]3(O)C(O)=C1C2=O (stereo partly shown) [Compound 6]	> 32	–
CN(C)c1cc(CNC(=O)OCC(C)(C)C)c(O)c2c1C[C@H]1C[C@H]3[C@H](N(C)C)C(O)=C(C(N)=O)C(=O)[C@@]3(O)C(O)=C1C2=O [Compound 8]	> 32	–
C=CCCOC(=O)NCc1cc(N(C)C)c2c(c1O)C(=O)C1=C(O)[C@]3(O)C(=O)C(C(N)=O)=C(O)[C@@H](N(C)C)[C@@H]3C[C@@H]1C2 [Compound 9]	> 32	–
CN(C)c1cc(CNC(=O)Oc2ccccc2)c(O)c2c1C[C@H]1C[C@H]3[C@H](N(C)C)C(O)=C(C(N)=O)C(=O)[C@@]3(O)C(O)=C1C2=O [Compound 10]	–	MIC [2]: > 32 µg/mL
CC(C)COC(=O)NCc1cc(N(C)C)c2c(c1O)C(=O)C1=C(O)[C@]3(O)C(=O)C(C(N)=O)=C(O)[C@H](N(C)C)[C@@H]3C[C@@H]1C2 [Compound 11]	> 32	–
CCCCOC(=O)NCc1cc(N(C)C)c2c(c1O)C(=O)C1=C(O)[C@]3(O)C(=O)C(C(N)=O)=C(O)[C@H](N(C)C)[C@@H]3C[C@@H]1C2 [Compound 12]	> 32	–
CCOC(=O)NCc1cc(N(C)C)c2c(c1O)C(=O)C1=C(O)[C@]3(O)C(=O)C(C(N)=O)=C(O)[C@H](N(C)C)[C@@H]3C[C@@H]1C2 [Compound 13]	16 (≈ 28.6 µM)	–
CC(C)CNCc1cc(N(C)C)c2c(c1O)C(=O)C1=C(O)[C@]3(O)C(=O)C(C(N)=O)=C(O)[C@@H](N(C)C)[C@@H]3C[C@@H]1C2 [Compound 14]	> 32	MIC (H37Rv): 16 µg/mL (≈ 29.5 µM)
CCCCNCc1cc(N(C)C)c2c(c1O)C(=O)C1=C(O)[C@]3(O)C(=O)C(C(N)=O)=C(O)[C@H](N(C)C)[C@@H]3C[C@@H]1C2 [Compound 15]	32 (≈ 59 µM)	–
CCCCN(CCCC)Cc1cc(N(C)C)c2c(c1O)C(=O)C1=C(O)[C@]3(O)C(=O)C(C(N)=O)=C(O)C(N(C)C)[C@@H]3C[C@@H]1C2 (stereo partly shown) [Compound 16]	> 32	–
CN(C)c1cc(CNCC(C)(C)C)c(O)c2c1C[C@H]1C[C@H]3[C@H](N(C)C)C(O)=C(C(N)=O)C(=O)[C@@]3(O)C(O)=C1C2=O [Compound 17]	32 (≈ 57.5 µM)	–
CCCCCCOC(=O)NCc1cc(N(C)C)c2c(c1O)C(=O)C1=C(O)[C@]3(O)C(=O)C(C(N)=O)=C(O)[C@@H](N(C)C)[C@@H]3C[C@@H]1C2 [Compound 18]	> 32	–
COCCOC(=O)NCc1cc(N(C)C)c2c(c1O)C(=O)C1=C(O)[C@]3(O)C(=O)C(C(N)=O)=C(O)[C@@H](N(C)C)[C@@H]3C[C@@H]1C2 [Compound 19]	> 32	–
Cc1ccc(OC(=O)NCc2cc(N(C)C)c3c(c2O)C(=O)C2=C(O)[C@]4(O)C(=O)C(C(N)=O)=C(O)[C@@H](N(C)C)[C@@H]4C[C@@H]2C3)cc1 [Compound 20]	–	MIC [2]: > 32 µg/mL
CN(C)c1cc(CNC(=O)Oc2ccc(Br)cc2)c(O)c2c1C[C@H]1C[C@H]3[C@H](N(C)C)C(O)=C(C(N)=O)C(=O)[C@@]3(O)C(O)=C1C2=O [Compound 21]	–	MIC [2]: 16 µg/mL (≈ 23.3 µM)
CN(C)c1cc(CNC(=O)OCC(Cl)(Cl)Cl)c(O)c2c1C[C@H]1C[C@H]3[C@H](N(C)C)C(O)=C(C(N)=O)C(=O)[C@@]3(O)C(O)=C1C2=O [Compound 22]	> 32	–
CN(C)c1cc(CNC(=O)Oc2ccc(F)cc2)c(O)c2c1C[C@H]1C[C@H]3[C@H](N(C)C)C(O)=C(C(N)=O)C(=O)[C@@]3(O)C(O)=C1C2=O [Compound 23]	–	MIC [2]: 32 µg/mL (≈ 51.2 µM)
CN(C)c1cc(CNC(=O)Nc2ccc3c(c2)OCO3)c(O)c2c1C[C@H]1C[C@H]3[C@H](N(C)C)C(O)=C(C(N)=O)C(=O)[C@@]3(O)C(O)=C1C2=O [Compound 24]	> 32	–
CC(=O)c1ccc(NC(=O)NCc2cc(N(C)C)c3c(c2O)C(=O)C2=C(O)[C@]4(O)C(=O)C(C(N)=O)=C(O)[C@@H](N(C)C)[C@@H]4C[C@@H]2C3)cc1 [Compound 25]	> 32	–

SMILES	MIC [1] [µg/mL]	also measured
CN(C)c1ccc(NC(=O)NCc2cc(N(C)C)c3c(c2O)C(=O)C2=C(O)[C@]4(O)C(=O)C(C(N)=O)=C(O)[C@@H](N(C)C)[C@@H]4C[C@@H]2C3)cc1 [Compound 26]	32 (≈ 49.3 µM)	–
CN(C)c1cc(CNC(=O)Nc2ccc(OC(F)(F)F)cc2)c(O)c2c1C[C@H]1C[C@H]3[C@H](N(C)C)C(O)=C(C(N)=O)C(=O)[C@@]3(O)C(O)=C1C2=O [Compound 27]	8 (≈ 11.6 µM)	–
CN(C)c1ccc(-c2cc(CN)c(O)c3c2C[C@H]2C[C@H]4[C@@H](N(C)C)C(O)=C(C(N)=O)C(=O)[C@@]4(O)C(O)=C2C3=O)cc1 [Compound 28]	> 32	–
CN(C)c1cc(CNCC(C)(C)C)c(O)c2c1C[C@H]1C[C@H]3C(N(C)C)C(O)=C(C(N)=O)C(=O)[C@@]3(O)C(O)=C1C2=O (stereo partly shown) [Compound 29]	32 (≈ 57.5 µM)	–
CCc1cc(CNCC(C)C)c(O)c2c1C[C@H]1C[C@H]3[C@H](N(C)C)C(O)=C(C(N)=O)C(=O)[C@@]3(O)C(O)=C1C2=O [Compound 30]	> 32	–
CN(C)C1C(O)=C(C(N)=O)C(=O)[C@@]2(O)C(O)=C3C(=O)c4c(O)c(CNC(=O)C5CC5)cc(-c5ccc(C(C)(C)C)cc5)c4C[C@H]3C[C@@H]12 (stereo partly shown) [Compound 31]	> 32	–
CN(C)[C@H]1C(O)=C(C(N)=O)C(=O)[C@@]2(O)C(O)=C3C(=O)c4c(O)c(CN)cc(-c5ccccc5)c4C[C@H]3C[C@@H]12 [Compound 32]	> 32	–
C[C@H]1c2ccc(CNCC(C)(C)C)c(O)c2C(=O)C2=C(O)[C@]3(O)C(=O)C(C(N)=O)=C(O)[C@@H](N(C)C)[C@@H]3[C@@H](O)[C@@H]21 [Compound 33]	> 32	–
CC(C)CNCc1ccc2c(c1O)C(=O)C1=C(O)[C@]3(O)C(=O)C(C(N)=O)=C(O)[C@@H](N(C)C)[C@@H]3[C@@H](O)[C@@H]1[C@H]2C [Compound 34]	32 (≈ 60.4 µM)	–
C[C@H]1c2ccc(CNCCc3ccccc3)c(O)c2C(=O)C2=C(O)[C@]3(O)C(=O)C(C(N)=O)=C(O)[C@@H](N(C)C)[C@@H]3[C@@H](O)[C@@H]21 [Compound 35]	> 32	–
CCc1cc(CNC(=O)CN(C)C)c(O)c2c1C[C@H]1C[C@H]3[C@@H](N(C)C)C(O)=C(C(N)=O)C(=O)[C@@]3(O)C(O)=C1C2=O [Compound 36]	32 (≈ 57.5 µM)	–
C[C@H]1c2ccc(CNC(=O)c3ccccc3)c(O)c2C(=O)C2=C(O)[C@]3(O)C(=O)C(C(N)=O)=C(O)[C@@H](N(C)C)[C@@H]3[C@@H](O)[C@@H]21 [Compound 37]	> 32	–
CN(C)c1cc(CNCc2cccn2C)c(O)c2c1C[C@H]1C[C@H]3[C@H](N(C)C)C(O)=C(C(N)=O)C(=O)[C@@]3(O)C(O)=C1C2=O [Compound 38]	> 32	–
CC(C)NCc1cc(N(C)C)c2c(c1O)C(=O)C1=C(O)[C@]3(O)C(=O)C(C(N)=O)=C(O)[C@H](N(C)C)[C@@H]3C[C@@H]1C2 [Compound 39]	> 32	–
CN(C)Cc1cc(N(C)C)c2c(c1O)C(=O)C1=C(O)[C@]3(O)C(=O)C(C(N)=O)=C(O)[C@@H](N(C)C)[C@@H]3C[C@@H]1C2 [Compound 40]	32 (≈ 62.2 µM)	–
Cc1cc(CNCc2cc(N(C)C)c3c(c2O)C(=O)C2=C(O)[C@]4(O)C(=O)C(C(N)=O)=C(O)[C@@H](N(C)C)[C@@H]4C[C@@H]2C3)oc1C [Compound 41]	> 32	–
CC(CF)NCc1cc(N(C)C)c2c(c1O)C(=O)C1=C(O)[C@]3(O)C(=O)C(C(N)=O)=C(O)C(N(C)C)[C@@H]3C[C@@H]1C2 (stereo partly shown) [Compound 42]	–	MIC [2]: 32 µg/mL (≈ 58.5 µM)
CN(C)c1cc(CNC2CCCC2)c(O)c2c1C[C@H]1C[C@H]3C(N(C)C)C(O)=C(C(N)=O)C(=O)[C@@]3(O)C(O)=C1C2=O (stereo partly shown) [Compound 43]	> 32	–
CC(CCO)NCc1cc(N(C)C)c2c(c1O)C(=O)C1=C(O)[C@]3(O)C(=O)C(C(N)=O)=C(O)[C@H](N(C)C)[C@@H]3C[C@@H]1C2 (stereo partly shown) [Compound 44]	> 32	–
CC(C)CNCc1cc(N(C)C)c2c(c1O)C(=O)C1=C(O)[C@]3(O)C(=O)C(C(N)=O)=C(O)C(N(C)C)[C@@H]3C[C@@H]1C2 (stereo partly shown) [Compound 45]	32 (≈ 59 µM)	–
CCNCC(=O)NCc1cc(N(C)C)c2c(c1O)C(=O)C1=C(O)[C@]3(O)C(=O)C(C(N)=O)=C(O)[C@H](N(C)C)[C@@H]3C[C@@H]1C2 [Compound 46]	32 (≈ 56 µM)	–
CN1CCC(NCc2cc(N(C)C)c3c(c2O)C(=O)C2=C(O)[C@]4(O)C(=O)C(C(N)=O)=C(O)[C@@H](N(C)C)[C@@H]4C[C@@H]2C3)CC1 [Compound 47]	> 32	–
CN(C)c1cc(CNC(=O)C(Cc2ccccc2)N(C)C)c(O)c2c1C[C@H]1C[C@H]3[C@@H](N(C)C)C(O)=C(C(N)=O)C(=O)[C@@]3(O)C(O)=C1C2=O (stereo partly shown) [Compound 48]	> 32	–
CN(C)c1cc(CNCC2CCNCC2)c(O)c2c1C[C@H]1C[C@H]3[C@@H](N(C)C)C(O)=C(C(N)=O)C(=O)[C@@]3(O)C(O)=C1C2=O [Compound 49]	> 32	–
